Laboratory results reported in DBAASP.
≈ marks a conversion by molar mass, not a printed value. Where “and” joins values, the source holds several entries; their conditions need not be identical. Equal entries are not always repeated. One block for each molecule: values may come before it.

What was measured:
Experiment in all cases: ≥ marks a high value that may be exact or a test limit, other limits are often not marked, values filed in µg/mL are converted to µM
[1] = system: Candida albicans CCARM 14020
[2] = system: Candida albicans CCARM 14022
Candida albicans SC5314 = system: Candida albicans SC5314
[3] = system: Malassezia sympodialis ATCC 42132
[4] = system: Aeromonas salmonicida 97-4
[5] = system: Aeromonas salmonicida 99-1
Candida albicans C627 = system: Candida albicans C627
[6] = system: Escherichia coli CGSC 4908
Escherichia coli DC2 = system: Escherichia coli DC2
Escherichia coli UB1005 = system: Escherichia coli UB1005
[7] = system: Pseudomonas aeruginosa K799
[8] = system: Pseudomonas aeruginosa Z61
[9] = system: Salmonella enterica serovar typhimurium MS7953s
[10] = system: Salmonella enterica subsp. enterica serovar Typhimurium ATCC 14028s
[11] = system: Staphylococcus aureus C623
[12] = system: Staphylococcus epidermidis C621
Aureobasidium pullulans = system: Aureobasidium pullulans
Bacillus megaterium = system: Bacillus megaterium
[13] = system: Bacillus subtilis ATCC 23857
[14] = system: Candida albicans ATCC 10231
[15] = system: Corynebacterium glutamicum ATCC 13032
[16] = system: Escherichia coli ATCC 25922
Micrococcus luteus = system: Micrococcus luteus
[17] = system: Pseudomonas aeruginosa ATCC 27853
[18] = system: Staphylococcus aureus ATCC 9144
[19] = system: Burkholderia cepacia ATCC 25416
[20] = system: Pseudomonas aeruginosa H374
[21] = system: Pseudomonas aeruginosa H547
[22] = system: Pseudomonas aeruginosa H744
[23] = system: Achromobacter xylosoxidans
Candida albicans = system: Candida albicans
[24] = system: Pseudomonas aeruginosa M1251
[25] = system: Pseudomonas aeruginosa M1426
[26] = system: Pseudomonas aeruginosa M76
[27] = system: Pseudomonas aeruginosa M917
[28] = system: Pseudomonas aeruginosa PAO1
[29] = system: Pseudomonas aeruginosa R70
Pseudomonas aeruginosa = system: Pseudomonas aeruginosa
Pseudomonas fluorescens = system: Pseudomonas fluorescens
Ralstonia pickettii = system: Ralstonia pickettii
[30] = system: Salmonella enterica serovar Typhimurium
Staphylococcus aureus = system: Staphylococcus aureus
[31] = system: Stenotrophomonas maltophilia
[32] = system: Bacillus subtilis KCCM 11495
[33] = system: Enterococcus faecium CCARM 5028
[34] = system: Enterococcus faecium CCARM 5029
[35] = system: Escherichia coli KCCM 11569

SMILES: C[C@H](NC(=O)[C@H](Cc1cnc[nH]1)NC(=O)[C@H](CO)NC(=O)[C@@H](N)CC(=O)O)C(=O)N[C@@H](CCCCN)C(=O)N[C@@H](CCCN=C(N)N)C(=O)N[C@@H](Cc1cnc[nH]1)C(=O)N[C@@H](Cc1cnc[nH]1)C(=O)NCC(=O)N[C@@H](Cc1ccc(O)cc1)C(=O)N[C@@H](CCCCN)C(=O)N[C@@H](CCCN=C(N)N)C(=O)N[C@@H](CCCCN)C(=O)N[C@@H](Cc1ccccc1)C(=O)N[C@@H](Cc1cnc[nH]1)C(=O)N[C@@H](CCC(=O)O)C(=O)N[C@@H](CCCCN)C(=O)N[C@@H](Cc1cnc[nH]1)C(=O)N[C@@H](Cc1cnc[nH]1)C(=O)N[C@@H](CO)C(=O)N[C@@H](Cc1cnc[nH]1)C(=O)N[C@@H](CCCN=C(N)N)C(=O)NCC(=O)N[C@@H](Cc1ccc(O)cc1)C(N)=O [DSHAKRHHGYKRKFHEKHHSHRGY]
MIC [1]: 3.73 µM and 10.5 µM | MIC [2]: 3.73 µM and 10.5 µM | MIC (Candida albicans SC5314): 3.73 µM and 10.5 µM | MIC [3]: 5.01 µM (≈ 15.2 µg/mL)

SMILES: C[C@H](NC(=O)[C@H](CCCCN)NC(=O)[C@H](Cc1c[nH]c2ccccc12)NC(=O)[C@H](Cc1c[nH]c2ccccc12)NC(=O)CNC(=O)[C@H](Cc1c[nH]c2ccccc12)NC(=O)[C@H](CCCCN)NC(=O)[C@H](CCCCN)NC(=O)CN)C(=O)N[C@@H](CCCCN)C(N)=O [GKKWGWWKAK]
MIC (Aureobasidium pullulans): ≥ 49 µM | MIC (Bacillus megaterium): 0.785 µM (≈ 0.999 µg/mL) | MIC [13]: 3.06 µM (≈ 3.9 µg/mL) | MIC [14]: 49 µM (≈ 62.5 µg/mL) | MIC [15]: 3.06 µM (≈ 3.9 µg/mL) | MIC [16]: 49 µM (≈ 62.5 µg/mL) | MIC (Micrococcus luteus): ≥ 49 µM | MIC [17]: > 196 µM | MIC [18]: ≥ 196 µM

SMILES: CC(C)C[C@H](NC(=O)[C@H](CC(C)C)NC(=O)[C@H](CCCCN)NC(=O)[C@H](C)NC(=O)[C@H](CC(C)C)NC(=O)[C@H](CCCCN)NC(=O)[C@H](CCCCN)NC(=O)[C@H](CC(C)C)NC(=O)[C@H](C)NC(=O)[C@H](CCCCN)NC(=O)[C@H](CCCCN)NC(=O)[C@H](Cc1ccc(O)cc1)NC(=O)[C@@H](N)CCCCN)C(N)=O [KYKKALKKLAKLL]
MIC [23]: 5.18 µM (≈ 8 µg/mL) | MIC (Candida albicans): 5.18 µM (≈ 8 µg/mL) | MIC (Escherichia coli UB1005): 2.59 µM (≈ 4 µg/mL) | MIC [24]: 1.29 µM (≈ 2 µg/mL) | MIC [25]: 10.4 µM (≈ 16 µg/mL) | MIC [26]: 2.59 µM (≈ 4 µg/mL) | MIC [27]: 10.4 µM (≈ 16 µg/mL) | MIC [28]: 2.59 µM (≈ 4 µg/mL) | MIC [29]: 1.29 µM (≈ 2 µg/mL) | MIC (Pseudomonas aeruginosa): 5.18 µM (≈ 8 µg/mL) | MIC (Pseudomonas fluorescens): 5.18 µM (≈ 8 µg/mL) | MIC (Ralstonia pickettii): 2.59 µM (≈ 4 µg/mL) | MIC [30]: 2.59 µM (≈ 4 µg/mL) | MIC (Staphylococcus aureus): 10.4 µM (≈ 16 µg/mL) | MIC [31]: 1.29 µM (≈ 2 µg/mL)

SMILES: CC(C)C[C@H](NC(=O)CNC(=O)[C@H](CCCCN)NC(=O)[C@H](CCCCN)NC(=O)[C@H](CC(C)C)NC(=O)[C@H](CC(C)C)NC(=O)[C@H](C)NC(=O)[C@H](CC(N)=O)NC(=O)[C@H](CC(C)C)NC(=O)[C@@H](N)Cc1c[nH]c2ccccc12)C(=O)N[C@@H](CC(N)=O)C(=O)N[C@@H](CS)C(=O)N[C@@H](C)C(=O)N[C@@H](CCCCN)C(=O)NCC(=O)N[C@H](C(=O)N[C@@H](CC(C)C)C(=O)N[C@@H](C)C(N)=O)C(C)C [WLNALLKKGLNCAKGVLA]
MIC [32]: 2.96 µM (≈ 5.65 µg/mL) | MIC [33]: 0.74 µM and 1.48 µM | MIC [34]: 0.74 µM and 1.48 µM | MIC [35]: 1.48 µM (≈ 2.83 µg/mL)

Continued, values first:

MIC [4]: 24.4 µM (≈ 64 µg/mL) | MIC [5]: 24.4 µM (≈ 64 µg/mL) | MIC (Candida albicans C627): 24.4 µM (≈ 64 µg/mL) | MIC [6]: 24.4 µM (≈ 64 µg/mL) | MIC (Escherichia coli DC2): 24.4 µM (≈ 64 µg/mL) | MIC (Escherichia coli UB1005): 24.4 µM (≈ 64 µg/mL) | MIC [7]: 24.4 µM (≈ 64 µg/mL) | MIC [8]: 12.2 µM (≈ 32 µg/mL) | MIC [9]: 24.4 µM (≈ 64 µg/mL) | MIC [10]: 24.4 µM (≈ 64 µg/mL) | MIC [11]: 12.2 µM (≈ 32 µg/mL) | MIC [12]: 12.2 µM (≈ 32 µg/mL)
SMILES: CC[C@H](C)[C@H](NC(=O)[C@H](C)NC(=O)CNC(=O)[C@H](CCCCN)NC(=O)[C@@H](NC(=O)[C@H](CC(C)C)NC(=O)[C@H](C)NC(=O)CNC(=O)[C@H](CC(C)C)NC(=O)[C@@H](N)Cc1ccccc1)[C@@H](C)CC)C(=O)N[C@@H](Cc1cnc[nH]1)C(=O)NCC(=O)NCC(=O)N[C@@H](CCCNC(=N)N)C(=O)N[C@@H](Cc1ccccc1)C(=O)N[C@H](C(=O)N[C@@H](Cc1cnc[nH]1)C(=O)NCC(=O)N[C@@H](CCSC)C(=O)N[C@H](C(=O)N[C@@H](CCC(N)=O)C(=O)N[C@@H](CC(N)=O)C(=O)N[C@@H](Cc1cnc[nH]1)C(=O)N[C@@H](Cc1cnc[nH]1)C(C)=O)[C@@H](C)CC)[C@@H](C)CC [FLGALIKGAIHGGRFIHGMIQNHH]

MIC [19]: 22.6 µM (≈ 64 µg/mL) | MIC (Escherichia coli UB1005): 0.707 µM (≈ 2 µg/mL) | MIC [17]: 4 µM (≈ 11.3 µg/mL) | MIC [20]: 1.41 µM (≈ 4 µg/mL) | MIC [21]: 2.83 µM (≈ 8 µg/mL) | MIC [22]: 1.41 µM (≈ 4 µg/mL) | MIC [7]: 1.77 µM (≈ 5 µg/mL) | MIC [8]: 1.06 µM (≈ 3 µg/mL) | MIC [10]: 1.41 µM (≈ 4 µg/mL)
SMILES: CC[C@H](C)[C@H](NC(=O)[C@H](CC(C)C)NC(=O)[C@H](C)NC(=O)[C@@H]1CCCN1C(=O)[C@H](CC(C)C)NC(=O)CNC(=O)[C@@H](NC(=O)[C@@H](NC(=O)[C@H](CC(C)C)NC(=O)[C@@H](NC(=O)[C@H](CCCCN)NC(=O)[C@H](CCCCN)NC(=O)[C@H](C)NC(=O)[C@H](C)NC(=O)[C@H](CO)NC(=O)[C@@H](NC(=O)[C@H](CC(C)C)NC(=O)[C@H](CCCCN)NC(=O)[C@H](CCCCN)NC(=O)[C@@H](NC(=O)[C@H](Cc1ccccc1)NC(=O)[C@H](CO)NC(=O)[C@H](CCCCN)NC(=O)[C@H](Cc1c[nH]c2ccccc12)NC(=O)[C@@H](N)CCCCN)[C@@H](C)CC)[C@@H](C)O)C(C)C)[C@@H](C)O)[C@@H](C)O)C(=O)N[C@@H](CO)C(=O)O [KWKSFIKKLTSAAKKVLTTGLPALIS]
